According to patent publication US11414385B2, “Compounds and methods for treating, detecting, and identifying compounds to treat apicomplexan parasitic diseases” (The University of Chicago, priority 2015, dated 2022):
≈ marks a conversion by molar mass, not a printed value. Where “and” joins values, the source holds several entries; their conditions need not be identical. Equal entries are not always repeated. Entries after “also recorded” stand apart in the source; their conditions may differ. Where two headings read alike, the source gives them in different places.

Assays:
[1] = test system: T. gondii bradyzoites (EGS strain); experiment: EGS strain bradyzoite assay (cysts in HFF, dolichos/BAG1 staining); type: cell-based, Toxoplasma gondii
Method: (§1) HFF cells were grown in IMDM (1×, [+] glutamine, [+] 25 mM HEPES, [+] Phenol red, 10% FBS, [Gibco, Denmark]) on removable, sterile glass disks in the bottom of a clear, flat-bottomed 24-well plate. Cultures were infected with 3×10^4 parasites (EGS strain) per well, in 0.5 mL media and plate was returned to incubator at 37° C. overnight. The following day, the media was removed and clear IMDM and compounds were added to making various concentrations of the drug, to a total volume of 0.5 mL. Two wells were filled with media only, as a control. Plates were returned to the 37° C. incubator for 72 hours.
Efficacy was determined following fixation. Staining was used to determine the numbers of cysts in cultures without and with treatment with the test compounds. Cells were fixed using 4% paraformaldehyde and stained with Fluorescein-labeled Dolichos Biflorus Agglutinin, DAPI, and anti-BAG1, and anti-SAG1. Disks were removed and mounted onto glass slides and visualized using microscopy (Nikon Tl7). Slides were also scanned using a CRi Pannoramic Scan Whole Slide Scanner and viewed using Panoramic Viewer Software.
as §1, with “[gibco,” for “[Gibco,”, “2” for “Two”, “72 hours, and checked once every 24” for “72”, “hours. If tachyzoites were visible in the control before 72 hours, the cells were fixed and stained.” for “hours.”
Cells were fixed using 4% paraformaldehyde and stained with Fluorescein-labeled Dolichos Biflorus Agglutinin, DAPI, and BAG1. Disks were removed and mounted onto glass slides and visualized using microscopy (Nikon Tl7). Slides were scanned using a CRi Pannoramic Scan Whole Slide Scanner and viewed using Panoramic Viewer Software. Effects of the compounds were quantified by counting cysts in the controls and treated cells. Cysts and persisting organisms were counted in a representative field of view and then multiplied by a factor determined by the total area of the disk in order to estimate the number of cysts and organisms in each condition.
HFF cells were grown in IMDM (1×, [+] glutamine, [+] 25 mM HEPES, [+] Phenol red, 10% FBS, [gibco, Denmark]) on removable, sterile glass disks in the bottom of a clear, flat-bottomed 24-well plate. Cultures were infected with 3×10^4 parasites (EGS strain) per well, in 0.5 mL media and plate was returned to incubator at 37° C. overnight. The following day, the media was removed and clear IMDM and compounds were added to making various concentrations of the drug, to a total volume of 0.5 mL. 2 wells were filled with media only, as a control. Plates were returned to the 37° C. incubator for 72 hours, and checked once every 24 hours. If tachyzoites were visible in the control before 72 hours, the cells were fixed and stained. Cells were fixed using 4% paraformaldehyde and stained with Fluorescein-labeled Dolichos Biflorus Agglutinin, DAPI, and BAG1. Disks were removed and mounted onto glass slides and visualized using microscopy (Nikon Tl7). Slides were scanned using a CRi Pannoramic Scan Whole Slide Scanner and viewed using Panoramic Viewer Software. Effects of the compounds were quantified by counting cysts in the controls and treated cells. Cysts and persisting organisms were counted in a representative field of view and then multiplied by a factor determined by the total area of the disk in order to estimate the number of cysts and organisms in each condition. Data was collected using Gen5 software. IC50 was calculated by graphical analysis in Excel.

[2] = Aqueous kinetic solubility pH 7.4; type: physicochemical; conditions: for solubility kinetic: PBS pH 7.4
[3] = Microsomal metabolic stability, mouse; type: in vitro ADME
[4] = test system: S. cerevisiae wild type parental AD1-9 strain; experiment: Yeast growth inhibition on glycerol medium, wild type; type: cell-based, Saccharomyces cerevisiae; conditions: 1 mM, 100, 5 and 1 μM
Method: Three S. cerevisiae strains were used: M221Q and M221F cytochrome b mutants and wild type. They share the same nuclear genetic background deriving from AD1-9 (kindly given by M. Ghislain, UCL, Belgium). AD1-9 harbors multiple deletions in the ABC transporter genes that render the strain more sensitive to drugs than standard yeast strains^S65.
Protocol: Yeast strains were grown over 48 hours at 33° C. in liquid YPG medium [1% yeast extract, 2% (wt/vol) peptone, and 3% (vol/vol) glycerol). Cultures were diluted to an OD600 of 0.05 and grown for 2 hrs. Cultures were then combined with YPG containing 6% melted agar for a total volume of 15-20 mL and poured onto OmniTray single-well rectangular plates that measured 86 mm by 128 mm (ThermoScientific). Filter paper disks (7 mm diameter, […]) were placed onto the cooled agar plates. […] A single disk with DMSO on each plate was used as a control. Plates were incubated at 33° C. Images were obtained after 4 days using GelDoc XR Imaging System (BioRad) and Quantity One software. Drug effect was assessed by the presence and size of a zone of inhibition around the disks.

[5] = test system: P. falciparum strains D6, TM91-C235, W2, C2B; experiment: Malaria SYBR Green I-Based Fluorescence (MSF) Assay; type: cell-based, Plasmodium falciparum; conditions: Plasmodium falciparum, read-out: P. falciparum IC50
Method: Testing of P. falciparum: D6 is a drug sensitive strain from Sierra Leone, C235 is a multi-drug resistant strain from Thailand, W2 is a chloroquine resistant strain from Thailand, and C2B has resistance to a variety of drugs including atovaquone.
D6 is a drug sensitive strain from Sierra Leone, C235 is a multi-drug resistant strain from Thailand, W2 is a chloroquine resistant strain from Thailand, and C2B has resistance to a variety of drugs including atovaquone. These assays were performed as described.
(§2) Compound activity against P. falciparum, a causative agent of malaria, was tested using the Malaria SYBR Green I—Based Fluorescence (MSF) Assay. This; microtiter plate drug sensitivity assay uses the presence of malarial DNA as a measure of parasitic proliferation in the presence of antimalarial drugs or experimental compounds based on modifications of previously described methods by Plouffe et al (20) and Johnson et al. As the intercalation of SYBR Green I dye and its resulting fluorescence is relative to parasite growth, a test compound that inhibits the growth of the parasite will result in a lower fluorescence.
Selected compounds were examined for activity against four strains of P. falciparum: D6 (CDC/Sierra Leone), a drug-sensitive strain readily killed by chloroquine, TM91-C235, a multi-drug resistant strain resistant to chloroquine, W2, a chloroquine resistant strain from Thailand, and C2B has resistance to a variety of drugs including atovaquone.
D6 is a drug sensitive strain from Sierra Leone, C235 is a multi-drug resistant strain from Thailand, W2 is a chloroquine resistant strain from Thailand, and C2B has resistance to a variety of drugs including atovaquone. These assays were performed using standard protocols.
as §2, with “known in the art.” for “by Plouffe et al (20) and Johnson et al.”, “fluorescence. Selected compounds were examined for activity against four strains of P. falciparum: D6 (CDC/Sierra Leone), a drugsensitive strain readily killed by chloroquine, TM91-C235, a multi-drug resistant strain resistant to chloroquine, W2, a chloroquine resistant strain from Thailand, and C2B has resistance to a variety of drugs including atovaquone.” for “fluorescence.”

[6] = Cytotoxicity assay with WST-1 in HFF; type: cell-based; conditions: human, human foreskin fibroblasts (HFF); read-out: HFF Toxicity CC50
Method: (§3) Toxicity assays were conducted using WST-1 cell proliferation reagent (Roche). HFF were grown on a flat, clear-bottomed, black 96-well plate. Confluent HFF were treated with inhibitory compounds at concentrations equal to those being tested in challenge assays. Compounds were diluted in IMDM-C, and 20 μl were added to each designated well, with triplicates for each condition. A gradient of 2 fold-decreasing concentrations of DMSO in clear IMDM-C was used as a control. The plate was incubated for 72 hours at 37° C. 10 μl of WST-1 reagent (Roche) were added to each well and the cells were incubated for 30 to 60 minutes. Absorbance was read using a fluorometer at 420 nm. A higher degree of color change (and absorbance) indicated mitochondrial activity and cell viability.
as §3, with “(Roche) as described in Fomovska, et. al. (18,19).” for “(Roche).”, “of 10 μM and 50 μM.” for “equal to those being tested in challenge assays.”, “DMSO from 10% to 0%” for “DMSO”, “fluorimeter” for “fluorometer”

[7] = FaSSIF solubility pH 6.5; type: physicochemical; conditions: pH 6.5
[8] = Microsomal metabolic stability, human; type: in vitro ADME
[9] = test system: human foreskin fibroblasts (HFF); experiment: Cytotoxicity assay with WST-1 in HFF; type: cell-based; conditions: 10 μM and 50 μM, WST-1
Method: as §3
as §3, with “(Roche) as described in Fomovska, et. al. (18,19).” for “(Roche).”, “of 10 μM and 50 μM.” for “equal to those being tested in challenge assays.”, “DMSO from 10% to 0%” for “DMSO”, “fluorimeter” for “fluorometer”

[10] = in vitro; type: in vitro ADME; conditions: dog, MDCK-MDR1
[11] = test system: MDR1; experiment: in vitro; type: in vitro ADME; conditions: dog, MDCK-MDR1, MDCK-MDR1 Efflux Ratio
[12] = test system: RH-YFP; experiment: Assessment of compound degradation and microbicidal effect on Toxoplasma; type: cell-based, Toxoplasma gondii
Method: HFF were cultured in a 96-well plate and infected with RH-YFP as described above on Day 0, 20 μL of compound was added to 9 wells for each compound and concentration (3 conditions, 3 wells per condition). In condition I, media was removed and replaced with fresh media on Day 3. In condition II, media was removed and replaced with fresh media and more compound on Day 3. In condition III, media was not replaced on Day 3, nor was the compound refreshed. On Day 6, media was removed and replaced with clean media in all wells. On Day 3, 6, and 9 plate was read in the fluorimeter and analyzed graphically in Prism (GraphPad Software).

Compound: Cc1[nH]c2ccccc2c(=O)c1-c1ccc(Oc2ccc(OC(F)(F)F)cc2)cc1 [ELQ271, 2-methyl-3-(4-(4-(trifluoromethoxy)phenoxy)phenyl) quinolin-4(1H)-one, reference compound]
- reduction of EGS cysts in vitro ([1]; 10 μM): reduce the EGS cysts; also recorded: inhibited EGS in vitro
- solubility ([2]; aqueous buffer, kinetic from dmso stock, 100 mM Phosphate Buffer (pH 7.4)): 0.15 µM (≈ 0.0617 µg/mL)
- Mouse liver microsomes T1/2 [3]: 7.4688 h
- growth inhibition of wild type yeast [4]: effective

Compound: Cc1[nH]c2ccccc2c(=O)c1-c1ccc(Oc2ccc(OC(F)(F)F)cc2)cc1 [ELQ 271, reference compound]
- IC50 ([1]; Toxoplasma gondii, EGS strain, read-out: T. gondii Bradyzoite IC50): 1000 nM
- IC50 ([5]; C2B strain (multi-drug resistant, atovaquone resistant)): 130 nM
- IC50 ([5]; D6 strain (drug sensitive)): 30 nM
- IC50 ([5]; TM91C235 strain (multi-drug resistant)): 90 nM
- IC50 ([5]; W2 strain (chloroquine resistant)): 100 nM
- CC50 at 72 h [6]: 20000 nM
- solubility kinetic [2]: 0.15 µM (≈ 0.0617 µg/mL)
- solubility [7]: 3.4 µM (≈ 1.4 µg/mL)
- Human microsomal stability T1/2 [8]: 2.87 h and 2.865 h
- Mouse microsomal stability T1/2 [3]: >3.33 h
- half-life ([3]; mouse, liver microsomes, read-out: Mouse microsomal stability T1/2): > 3.33 h

Compound: Cc1[nH]c2c(c(=O)c1-c1ccc(Oc3ccc(Cl)cc3)cc1)CCCC2 [JAG050, 3-(4-(4-chlorophenoxy)phenyl)-2-methyl-5,6,7,8-tetrahydroquinolin-4(1H)-one]
- reduction in the number of true cysts and small organisms ([1]; 1 μM and 10 μM, EGS): statistically significant reduction
- Pseudocysts ([1]; part a, 1 μM): 23.25 ± 10.31
- Small organisms ([1]; part a, 1 μM): 58 ± 24
- True Cysts ([1]; part a, 1 μM): 0.25 ± 0.5
- Pseudocysts ([1]; part a, 10 μM): 20.5 ± 2.9
- Small organisms ([1]; part a, 10 μM): 31 ± 16
- True Cysts ([1]; part a, 10 μM): 1 ± 0.82
- Pseudocysts ([1]; part b, 1 μM): 2269
- Small organisms ([1]; part b, 1 μM): 5086
- True Cysts ([1]; part b, 1 μM): 29
- Pseudocysts ([1]; part b, 10 μM): 1921
- Small organisms ([1]; part b, 10 μM): 3018
- True Cysts ([1]; part b, 10 μM): 88
- toxicity to human foreskin fibroblasts [9]: no toxicity
- solubility kinetic ([2]; PBS, pH 7.4, aqueous buffer, kinetic from dmso stock): 16 µM (≈ 5.85 µg/mL)
- Human liver microsomes T1/2 [8]: 1.651 h
- Mouse liver microsomes T1/2 [3]: 1.142 h
- Papp A→B [10]: > 10 ×10⁻⁶ cm/s
- efflux ratio [11]: < 1.5
- compound degradation over time ([12]; 6-day exposure in culture): did not appear that the compound was being degraded over time
- microbicidal effect ([12]; RH-YFP, media replaced): Neither compound was found to be microbicidal
